Source: patent US20230220387A1, “D-SERINE TRANSPORT MODIFIER AND SCREENING METHOD THEREOF, AND SCREENING METHOD OF D-SERINE TRANSPORTER PROTEIN” (Kagami Inc., priority 2019, published 2023)
“Also recorded” adds a separate entry of the source.

How the values were obtained:
Assay type in all cases: cell-based
[1] = system: FlpIn293TR-hSLC5A12-3×FLAG (SMCT2)-stable cell line; assay: Toxicity test (XTT) in SMCT2-stable cell line; conditions: FlpIn293TR-Mock or SMCT2-stable cell line; SMCT2 cells compared to Mock cells
Description: (§1) A toxicity test for stable cells was carried out using an FlpIn293TR-stable cell line. The cells were seeded in a poly-D-lysine-coated 96-well plate at 6.5×10^3 cells/well (Mock) and 8×10^3 cells/well (hSLC5A8 and hSLC5A12 cells), while in antibiotic-free DMEM+dialyzed FBS medium. After 24 hours, they were treated with L- or D-serine at different concentrations and 1 mg/L of doxycycline hyclate was added to induce recombination gene expression. For the ASCT2 knockdown experiment, the seeded cells were transfected after 12 hours with ASCT2 siRNA at 2 pmol/well, using Lipofectamine 3000. The effect of ibuprofen was analyzed by simultaneous addition with D-serine treatment. The cells were cultured for 2 days to 80% confluence. The proliferated cell count was determined by XTT measurement in the same manner as described above.

[2] = system: HEK293 cells transiently transfected with a cDNA clone of a transporter candidate; assay: Cytotoxicity test (XTT) for screening of D-serine transporter candidates
Description: (§2) 2-4. Cell survival measurement A D-serine toxicity test was carried out using HEK293 in a transient expression system. The cells were seeded in a 96-well plate at 10,000 cells/well, and transfected with […] DNA (pCMV14 as Mock, pCMV14-hSLC5A8-3×FLAG as SMCT1 and pCMV14-hSLC5A12-3×FLAG as SMCT2). At 24 hours after transfection they were treated with D-serine and further incubated for 2 days. The proliferated cell count was determined by XTT measurement. The XTT solution comprised 1 mg/ml of XTT (2,3-Bis-(2-Methoxy-4-nitro-5-sulfophenyl)-2H-tetrazolium-5-carboxanilide, disodium salt: Biotium, CA, USA) mixed with 7.5 μg/ml of Phenazine methosulfate (Nacalai Tesque, Inc.), and was added to the cultured cells. The incubation reaction was carried out for 4 hours at 37° C., 5% CO2. The absorbance at 450 nm was then measured with a microplate reader.
A total of 19 D-serine transporter candidates were selected from the proteome results. A cytotoxicity test for screening of D-serine transporter was developed based on the idea that intracellular D-serine accumulated via D-serine transporter function induces cytotoxicity. HEK293 cells were transiently transfected with a cDNA clone and the cells were treated with 15 mM or 25 mM D-serine to observe the initial stage and stationary stage of the toxicity effect. […]

[3] = system: FlpIn293TR-hSLC5A8-3×FLAG (SMCT1)-stable cell line; assay: Toxicity test (XTT) in SMCT1-stable cell line; conditions: SMCT1 cells compared to Mock cells
Description: as §1

[4] = system: HEK293 cells transiently transfected with pCMV14-hSLC5A8-3×FLAG (SMCT1); assay: D-serine toxicity test in transient expression system, SMCT1; conditions: SMCT1-expressing HEK293 cells; 2 days; XTT
Description: as §2

Flp-In TREx293 cells = assay: Cell proliferation by XTT assay in Flp-In TREx293 cells treated with L- or D-serine
Description: as §2, §1

[5] = system: HEK293 cells transiently transfected with pCMV14-hSLC5A12-3×FLAG (SMCT2); assay: D-serine toxicity test in transient expression system, SMCT2; conditions: SMCT2-expressing HEK293 cells; 2 days; XTT
Description: as §2

HEK293 cells = assay: [3H]D-serine transport in HEK293 cells; conditions: endogenous ASCT2
Description: (§3) The cell lines HEK293 and Flp-In TREx 293 were cultured at 37° C. in a 5% CO2 environment, using Dulbecco's Modified Eagle Medium (DMEM) containing 10% fetal bovine serum (FBS), 100 units/ml Penicillin G and 100 μg/ml streptomycin (P/S). The cells were seeded in a Poly-D-lysine coated 24-well plate at 6×10^4 cells/well. After culturing for 3 days in DMEM Medium containing 10% FBS and P/S, the cell were used for transport activity measurement. Before transport activity measurement, the cells were washed with transport activity measurement buffer (PBS+1 g/L D-glucose) prewarmed to 37° C. and incubated for 10 minutes at 37° C. in 500 μL of buffer. The transport activity measurement was initiated by addition of D-[^3H]serine-containing transport activity buffer at the indicated concentration. The reaction product produced after addition was incubated at 37° C. for the indicated time. The reaction was suspended by removing the D-[^3H]serine-containing transport activity buffer, and the product was washed 3 times with thoroughly cooled transport activity buffer. The cells were dissolved with 500 μL of 0.1 N NaOH and incubated for at least one hour. Protein concentration of the cell lysate was measured by BCA protein assay. The lysate was mixed with 1 mL of Emulsifier Safe (PerkinElmer, MA, USA) and the radioactivity of the lysate was measured with a β-scintillation counter (LSC-8000, Hitachi). In transport activity measurement for Na^+, HBSS (+Na^+: 125 mM NaCl, −Na^+: choline chloride, 4.8 mM KCl, 1.2 mM MgSO4, 1.2 mM KH2PO4, 1.3 mM CaCl2), 5.6 mM D-glucose and 25 mM HEPES was used instead of PBS. For the inhibition experiment, a non-radioactive labeled compound was included as the uptake substrate as shown in the drawing.

ASCT2 = molecular target: T1, ASCT2 (Homo sapiens, UniProt Q15758); assay: [3H]D-serine transport in HEK293 cells transfected with ASCT2
T1 construct: expressed in transfected cells; host or cells: HEK293 cells
T1 sequence (Q15758 1-541): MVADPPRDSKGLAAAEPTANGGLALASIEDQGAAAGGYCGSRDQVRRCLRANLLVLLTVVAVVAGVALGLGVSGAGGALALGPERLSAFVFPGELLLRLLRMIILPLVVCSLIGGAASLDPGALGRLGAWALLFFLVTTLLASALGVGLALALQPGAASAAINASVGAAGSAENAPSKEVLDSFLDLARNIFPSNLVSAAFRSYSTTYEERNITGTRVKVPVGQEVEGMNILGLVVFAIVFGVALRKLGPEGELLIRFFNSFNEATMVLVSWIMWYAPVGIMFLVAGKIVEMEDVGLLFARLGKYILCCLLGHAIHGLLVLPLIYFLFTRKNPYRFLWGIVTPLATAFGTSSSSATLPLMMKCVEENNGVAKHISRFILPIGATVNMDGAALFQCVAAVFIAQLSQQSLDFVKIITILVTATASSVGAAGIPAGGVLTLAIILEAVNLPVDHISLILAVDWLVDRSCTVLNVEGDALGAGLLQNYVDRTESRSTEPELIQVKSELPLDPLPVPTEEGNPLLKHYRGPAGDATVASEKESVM
Description: The cell lines HEK293 and Flp-In TREx 293 were cultured at 37° C. in a 5% CO2 environment, using Dulbecco's Modified Eagle Medium (DMEM) containing 10% fetal bovine serum (FBS), 100 units/ml Penicillin G and 100 μg/ml streptomycin (P/S). The cells were seeded in a Poly-D-lysine coated 24-well plate at 6×10^4 cells/well. After culturing for 3 days in DMEM Medium containing 10% FBS and P/S, the cell were used for transport activity measurement. Before transport activity measurement, the cells were washed with transport activity measurement buffer (PBS+1 g/L D-glucose) prewarmed to 37° C. and incubated for 10 minutes at 37° C. in 500 μL of buffer. The transport activity measurement was initiated by addition of D-[^3H]serine-containing transport activity buffer at the indicated concentration. The reaction product produced after addition was incubated at 37° C. for the indicated time. The reaction was suspended by removing the D-[^3H]serine-containing transport activity buffer, and the product was washed 3 times with thoroughly cooled transport activity buffer. […] Protein concentration of the cell lysate was measured by BCA protein assay. The lysate was mixed with 1 mL of Emulsifier Safe (PerkinElmer, MA, USA) and the radioactivity of the lysate was measured with a β-scintillation counter (LSC-8000, Hitachi). […]

[6] = system: Flp-In TREx 293 cell line; assay: D-[3H]serine uptake in Flp-In TREx 293 cell line in the presence of inhibitors; conditions: 10 minutes
Description: as §3

[7] = system: ASCT2-knockout HAP1 cells; assay: D-serine transport in ASCT2-knockout HAP1 cells
Text: In order to establish positive candidates for D-serine transporter it was attempted to elucidate the transport function in a cell model. ASCT2 is expressed in several cell lines, constituting a strong background of D-serine accumulation and interfering with identification of novel D-serine transporters. HAP1 cells (Horizon Discovery), which are an essentially haploid cell line, can be advantageously used as a cell model for this purpose. Genetic modification is facilitated since almost all of the chromosomes are single copies, while their transcriptome analysis methods have been established and several gene knockout cell lines can be used. ASCT2-knockout HAP1 cells were therefore obtained and used as a model for D-serine screening.
The ASCT2-knockout HAP1 cells had weaker D-serine uptake compared to wild type cells (FIG. 17(A)). However, D-serine transport background was still observed in the ASCT2-knockout HAP1 cells. Proteome analysis of the HAP1 cells (Table 2) was used to detect expression of both SNAT1 and SNAT2. SNAT1 and SNAT2 belong to the “system A family” of sodium-dependent small amino acid transporters. We considered that SNAT may contribute to D-serine transport in HAP1 cells. In order to verify this hypothesis, the inhibiting effect of the system A inhibitor MeAIB on D-serine transport was examined.

N[C@H](CO)C(=O)O [D-serine]
cell proliferation effect by serine treatment [1]: decrease in cell proliferation; also recorded: lowered proliferation more than in the Mock cells
D-serine toxicity effect compared with Mock cells ([2]; 15 mM D-serine, cells transfected with SMCT2, CAT1, TAT1 and SNAT2, 2 days): increased toxicity
D-serine toxicity effect compared with Mock cells ([2]; 25 mM D-serine, cells transfected with GLUT5, SMCT1, SMCT2, CAT1, THTR2 and SNAT2, 2 days): significant toxicity
cell proliferation effect by D-serine treatment [3]: lowered proliferation more than in the Mock cells
cytotoxicity compared to the Mock cells [4]: higher cytotoxicity
D-serine toxicity with respect to cell proliferation (Flp-In TREx293 cells; ASCT2 knockdown cells (ASCT2-siRNA) compared with control cells, 2 days, XTT): alleviated
EC50 (Flp-In TREx293 cells; Flp-In-T-REx-293, 48 h, 2 days treatment, XTT assay, read-out: EC50 for cell proliferation reduction): 18.7 mM
cytotoxicity compared to the Mock cells [5]: higher cytotoxicity

N[C@@H](CO)C(=O)O [L-serine]
cell proliferation effect by serine treatment [1]: did not affect cell proliferation
[3H]D-serine transport (HEK293 cells): inhibited
[3H]D-serine transport (ASCT2): notably inhibited
Uptake of D-[3H]serine [6]: inhibited
cell proliferation (Flp-In TREx293 cells; Flp-In TREx 293 control cells, 2 days, XTT): no effect

CNC(C)(C)C(=O)O [MeAIB, α-Methylaminoisobutyric acid]
[3H]D-serine transport (HEK293 cells): not inhibited
Uptake of D-[3H]serine [6]: not inhibited
D-serine transport [7]: notably reduced
